The source of these data is patent US20240058450A1, “BCL-XL Inhibitory Compounds Having Low Cell Permeability and Antibody Drug Conjugates Including the Same” (AbbVie Inc., priority 2014, published 2024).

pEC50, pKi: −log10 of the molar value. Read-outs that look alike come from different tables or passages of the source.

The test system of assay [1] is permeabilized Bcl-xL dependent Molt-4 cells. The experiment in a line: Cytochrome C release in selectively (digitonin) permeabilized Molt-4 cells. It counts as cell-based, human. The following applies: Homo sapiens, MOLT-4, 4 h, 4 h treatment, read-out: Molt-4 Permeabilized Cyt C Release. The source says:
The permeabilization of the mitochondrial outer membrane to release proteins from the intermembrane space into the cytosol is a pivotal event in the process of apoptosis. Specifically, the release of cytochrome C triggers the formation of the apoptosome which, in turn, results in caspase activation and other events that will commit the cell to undergo programmed cell death (Goldstein el al., 2005, Cell Death and Differentiation 12:453). The process of mitochondrial outer membrane permeabilization (MOMP) is controlled by the Bcl-2 family members. It is promoted by the multidomain pro-apoptotic proteins Bax and Bak which, upon activation, oligomerize on the outer mitochondrial membrane and form pores to ultimately release cytochrome C. This action is antagonized by the antiapoptotic members, including Bcl-2 and Bcl-xL. Compounds that are capable of inhibiting Bcl-2 or Bcl-xL, for example, in cells that depend upon these proteins for survival, can cause activation of Bax and or Bak, MOMP, release of cytochrome C and the mentioned downstream steps in the apoptotic process. This process of cytochrome C release can be measured in cells via Western blot of both mitochrondrial and cytosolic fractions, and can be used a proxy measurement of apoptosis in cells.
As a means of detecting the ability of a Bcl-xL inhibitor with low cell-permeability to cause release of cytochrome C, the cells can be treated with an agent that causes selective pore formation in the plasma membrane, but not the mitochondrial membrane. Specifically, the cholesterol/phospholipid ratio is much higher in the plasma membrane than the mitochondrial membrane. […] This agent forms insoluble complexes with cholesterol leading to the segregation of cholesterol from its normal phospholipid binding sites. This action, in turn, leads to the formation of holes about 40-50 Å wide in the lipid bilayer. Once the plasma membrane is permeabilized, cytosolic components able to pass over digitonin-formed holes can be washed out, including the cytochrome C that was released from mitochondria to cytosol in the apoptotic cells ((Campos, 2006, Cytometry A 69(6):515-523)).
To determine if Bcl-xL inhibitors were inducing cell death through apoptosis, cytochrome C release was measured in Bcl-xL dependent Molt-4 cells following treatment Specifically, 1×10^6 cells were treated for 4 h (37° C., 5% CO2) with the test compounds in half-log dilutions starting at 3.0 μM and ending at 0.01 μM. Cells were then processed as described in Chen et al., 2011, Mol. Cancer Ther. 10:2340-2350 (the Bcl-2/Bcl-X(L)/Bcl-w inhibitor, navitoclax, enhances the activity of chemotherapeutic agents in vitro and in vivo.).

The target of the next assay is Bcl-xL (Homo sapiens, UniProt Q07817). The experiment in a line: Time Resolved-Fluorescence Resonance Energy Transfer (TR-FRET) binding assay, competition with probe F-Bak. The following applies: for Ki: in the presence of 1% HS, read-out: Bcl-xL Binding Ki (nM, 1% HS); for pKi: without HS, read-out: Bcl-xL Binding Ki. A digest of the protocol: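 TR-FRET binding assay run at room temperature for 2 h after mixing compound with Bcl-xL protein, F-Bak probe and Tb-labelled antibody. Test compounds diluted from a 2× 50 μM stock. Ki values derived via Wang's equation from 520/495 nm emission under 340 nm excitation, in the absence of serum or with 1% HS.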
On the technique in general: In TR-FRET formats the signal depends on donor and acceptor labels being close together.

Assay [2] concerns Molt-4 human acute lymphoblastic leukemia cells. The experiment in a line: Molt-4 cell viability assay (CellTiter-Glo, 48 hours, 10% HS). The note with it: Homo sapiens, MOLT-4, 48 h, non-permeabilized cells. It counts as cell-based. In a few lines:
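Cells were seeded at 12,500 per well in medium with 10% human serum and exposed to a 3-fold compound dilution series from 10 μM to 0.0005 μM. After 48 h, viable cells were quantified by CellTiter-Glo luminescence. Each concentration was run in duplicate on at least 3 occasions.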
In general terms: ATP-based viability assays read luminescence as a measure of living cells.

Sequence of Bcl-xL (Q07817 whole entry): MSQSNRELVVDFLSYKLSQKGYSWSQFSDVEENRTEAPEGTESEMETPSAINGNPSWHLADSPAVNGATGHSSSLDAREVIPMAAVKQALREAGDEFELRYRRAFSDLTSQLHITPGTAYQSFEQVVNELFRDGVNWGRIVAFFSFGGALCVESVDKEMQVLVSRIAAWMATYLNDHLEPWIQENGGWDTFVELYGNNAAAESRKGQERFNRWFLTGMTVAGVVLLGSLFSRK

Turning to `Cc1c(-c2ccc(N3CCc4cccc(C(=O)Nc5nc6ccccc6s5)c4C3)nc2C(=O)O)cnn1CC12CC3(C)CC(C)(C1)CC(OCCNCCS(=O)(=O)O)(C3)C2` [Example 1.2, 6-[8-(1,3-benzothiazol-2-ylcarbamoyl)-3,4-dihydroisoquinolin-2 (1H)-yl]-3-(1-[(3,5-dimethyl-7-{12-[(2-sulfoethyl)amino]ethoxy}tricyclo[3.3.1.1^3,7]dec-1-yl)methyl]-5-methyl-1H-pyrazol-4-yl}pyridine-2-carboxylic acid], in assay [1], the pEC50 is more than 9.30. Besides, on Bcl-xL, the Ki worked out at 0.16 nM and the pKi was more than 12.00.

In assay [2], `Cc1c(-c2ccc(N3CCc4cccc(C(=O)Nc5nc6ccccc6s5)c4C3)nc2C(=O)O)cnn1CC12CC3(C)CC(C)(C1)CC(OCCNCCCS(=O)(=O)O)(C3)C2` [Example 1.5, 6-[8-(1,3-benzothiazol-2-ylcarbamoyl)-3,4-dihydroisoquinolin-2 (1H)-yl]-3-{1-[(3,5-dimethyl-7-{2-[(3-sulfopropyl)amino]ethoxy}tricyclo[3.3.1.1^3,7]dec-1-yl)methyl]-5-methyl-1H-pyrazol-4-yl}pyridine-2-carboxylic acid] showed an EC50 of 189 nM. The pEC50 in assay [1] is 9.00 to 9.30. For the same compound, on Bcl-xL, the inhibition constant (Ki) was 0.26 nM and the pKi is 10.72.

Take `Cc1c(-c2ccc(N3CCc4cccc(C(=O)Nc5nc6ccccc6s5)c4C3)nc2C(=O)O)cnn1CC12CC3(C)CC(C)(C1)CC(OCCOCCNCc1ccc(O[C@@H]4O[C@H](CO)[C@@H](O)[C@@H](O)[C@H]4O)cc1)(C3)C2` [Example 1.10, 3-[1-({3-[2-(2-{[4-(beta-D-allopyranosyloxy)benzyl]amino}ethoxy)ethoxy]-5,7-dimethyltricyclo[3.3.1.1^3,7]dec-1-yl}methyl)-5-methyl-1H-pyrazol-4-yl]-6-[8-(1,3-benzothiazol-2-ylcarbamoyl)-3,4-dihydroisoquinolin-2 (1H)-yl]pyridine-2-carboxylic acid]: the EC50 in assay [2] is 74 nM. For the same compound, the pEC50 in assay [1] is more than 9.30. Besides, on Bcl-xL, the Ki amounted to 0.027 nM and the pKi is more than 12.00.

In turn, `Cc1c(-c2ccc(N3CCc4cccc(C(=O)Nc5nc6ccccc6s5)c4C3)nc2C(=O)O)cnn1CC12CC3(C)CC(C)(C1)CC(OCCOCCNCCS(=O)(=O)O)(C3)C2` [Example 1.11, 6-[8-(1,3-benzothiazol-2-ylcarbamoyl)-3,4-dihydroisoquinolin-2 (1H)-yl]-3-(1-{[3,5-dimethyl-7-(2-{2-[(2-sulfoethyl)amino]ethoxy}ethoxy)tricyclo[3.3.1.1^3,7]dec-1-yl]methyl}-5-methyl-1H-pyrazol-4-yl}pyridine-2-carboxylic acid] returned an EC50 in assay [2] of 63 nM. Further, the pEC50 in assay [1] is more than 9.30. In addition, on Bcl-xL, the inhibitory constant (Ki) was 0.17 nM and the negative-log Ki (pKi) was more than 12.00.

Take `Cc1c(-c2ccc(N3CCc4cccc(C(=O)Nc5nc6ccccc6s5)c4C3)nc2C(=O)O)cnn1CC12CC3(C)CC(C)(C1)CC(OCCNCCP(=O)(O)O)(C3)C2` [Example 1.12, 6-[8-(1,3-benzothiazol-2-ylcarbamoyl)-3,4-dihydroisoquinolin-2 (1H)-yl]-3-{1-[(3,5-dimethyl-7-{2-[(2-phosphonoethyl)amino]ethoxy}tricyclo[3.3.1.1^3,7]dec-1-yl)methyl]-5-methyl-1H-pyrazol-4-yl}pyridine-2-carboxylic acid]: it took 389 nM to reach a half-maximal effect in assay [2] (EC50). Besides, in assay [1], the pEC50 was more than 9.30. Also, on Bcl-xL, the Ki was 0.08 nM and the pKi was more than 12.00.

`Cc1c(-c2ccc(N3CCc4cccc(C(=O)Nc5nc6ccccc6s5)c4C3)nc2C(=O)O)cnn1CC12CC3(C)CC(C)(C1)CC(OCCN(C)C(=O)[C@@H](N)CS(=O)(=O)O)(C3)C2` [Example 1.13, 6-[8-(1,3-benzothiazol-2-ylcarbamoyl)-3,4-dihydroisoquinolin-2 (1H)-yl]-3-{1-[(3,5-dimethyl-7-{2-[methyl(3-sulfo-L-alanyl)amino]ethoxy}tricyclo[3.3.1.1^3,7]dec-1-yl)methyl]-5-methyl-1H-pyrazol-4-yl}pyridine-2-carboxylic acid] came in with an EC50 in assay [2] of 257 nM. Moreover, the pEC50 in assay [1] was more than 9.30. Further, on Bcl-xL, the Ki turned out to be 0.2 nM and the pKi is more than 12.00.

In assay [2], `Cc1c(-c2ccc(N3CCc4cccc(C(=O)Nc5nc6ccccc6s5)c4C3)nc2C(=O)O)cnn1CC12CC3(C)CC(C)(C1)CC(OCCNCCCP(=O)(O)O)(C3)C2` [Example 1.14, 6-[8-(1,3-benzothiazol-2-ylcarbamoyl)-3,4-dihydroisoquinolin-2 (1H)-yl]-3-{1-[(3,5-dimethyl-7-{2-[(3-phosphonopropyl)amino]ethoxy)tricyclo[3.3.1.1^3,7]dec-1-yl)methyl]-5-methyl-1H-pyrazol-4-yl}pyridine-2-carboxylic acid] returned a concentration for a half-maximal effect (EC50) of 415 nM. The pEC50 in assay [1] was more than 9.30. On Bcl-xL, the inhibition constant Ki is 0.18 nM and the negative logarithm of the Ki (pKi) is more than 12.00.

In assay [2], `Cc1c(-c2ccc(N3CCc4cccc(C(=O)Nc5nc6ccccc6s5)c4C3)nc2C(=O)O)cnn1CC12CC3(C)CC(C)(C1)CC(OCCNC(=O)[C@@H](N)CS(=O)(=O)O)(C3)C2` [Example 1.15, 6-[8-(1,3-benzothiazol-2-ylcarbamoyl)-3,4-dihydroisoquinolin-2 (1H)-yl]-3-{1-[(3,5-dimethyl-7-{2-[(3-sulfo-L-alanyl)amino]ethoxy}tricyclo[3.3.1.1^3,7]dec-1-yl)methyl]-5-methyl-1H-pyrazol-4-yl}pyridine-2-carboxylic acid] displayed an EC50 of 663 nM. The pEC50 in assay [1] is 8.30 to 9.00. Moreover, on Bcl-xL, the inhibition constant (Ki) was 0.39 nM and the pKi was 11.52.

Consider `Cc1c(-c2ccc(N3CCc4c(OCCNCCC(=O)O)ccc(C(=O)Nc5nc6ccccc6s5)c4C3)nc2C(=O)O)cnn1CC12CC3(C)CC(C)(C1)CC(OCCN(C)CCS(=O)(=O)O)(C3)C2` [Example 1.49, 6-[8-(1,3-benzothiazol-2-ylcarbamoyl)-5-{2-[(2-carboxyethyl)amino]ethoxy}-3,4-dihydroisoquinolin-2 (1H)-yl]-3-{1-[(3,5-dimethyl-7-{2-[methyl(2-sulfoethyl)amino]ethoxy}tricyclo[3.3.1.1^3,7]dec-1-yl)methyl]-5-methyl-1H-pyrazol-4-yl}pyridine-2-carboxylic acid], for which the EC50 in assay [2] stood at 92 nM. The pEC50 in assay [1] is more than 9.30.

The compound `Cc1c(-c2ccc(N3CCc4cccc(C(=O)Nc5nc6ccccc6s5)c4C3)nc2C(=O)O)cnn1CC12CC3(C)CC(C)(C1)CC(OCCNCCC(=O)NC(CO)(CO)CO)(C3)C2` [Example 1.84, 6-[8-(1,3-benzothiazol-2-ylcarbamoyl)-3,4-dihydroisoquinolin-2 (1H)-yl]-3-{1-[(3-{2-[(3-{[1,3-dihydroxy-2-(hydroxymethyl)propan-2-yl]amino}-3-oxopropyl)amino]ethoxy}-5,7-dimethyltricyclo[3.3.1.1^3,7]dec-1-yl)methyl]-5-methyl-1H-pyrazol-4-yl}pyridine-2-carboxylic acid] yielded an EC50 in assay [2] of 259 nM. Further, at Bcl-xL, the inhibition constant Ki was found to be 1.2 nM and the pKi is 10.16.

The Ki is a dissociation constant, usually derived from enzyme kinetics or from competition with a known ligand. One may read the pKi as the Ki on a negative log10 scale, so that one unit is a factor of ten. One may read the EC50 as the concentration needed to bring the measured effect to its halfway point. Read a high EC50 as a need for much substance.
